Data from ChEMBL document CHEMBL2385056, “Imidazopyrazine Derivatives As Inhibitors of mTOR” (ACS Med Chem Lett, 2013).

Key:
[1] = Inhibition of mTORC2 in human PC3 cells assessed as reduction of phosphorylated AKT Ser473 level after 90 mins by HTRF assay; assay type: cell-based; details: PC-3, 1.5 h
mTORC1 = mTORC1 (Homo sapiens, UniProt P42345); assay: Inhibition of mTORC1 in human PC3 cells assessed as reduction of phosphorylated 4E-BP1Thr37/46 level after 90 mins by HTRF assay; assay type: cell-based, PC-3

IC50 [1] [nM]	IC50 (mTORC1) [nM]	Compound
100	100	Nc1nc([C@@H]2C[C@H]3CC[C@@H](C2)N3C(=O)CO)cn2c(-c3ccc(-c4ccccc4)nc3)cnc12
> 10000	> 10000	Nc1nc([C@@H]2C[C@H]3CC[C@@H](C2)N3C(=O)c2nnc[nH]2)cn2c(-c3ccc(-c4ncc[nH]4)nc3)cnc12
1	100	Nc1nc([C@@H]2C[C@H]3CC[C@@H](C2)N3C(=O)c2nnc[nH]2)cn2c(-c3ccc(-c4ccccc4)nc3)cnc12
1000	1000	Cn1ccc(-c2ccc(-c3cnc4c(N)nc([C@@H]5C[C@H]6CC[C@@H](C5)N6C(=O)c5nnc[nH]5)cn34)cn2)n1
1140	1860	Nc1nc([C@@H]2C[C@H]3CC[C@@H](C2)N3C(=O)c2nnc[nH]2)cn2c(-c3cnn(-c4ccccc4)c3)cnc12
